The values below come from ChEMBL document CHEMBL3856287, “Synthesis of novel tetrazole derivatives and evaluation of their antifungal activity” (Bioorg Med Chem, 2016).

The subject of data set [1] is Candida albicans. The data set can be described thus: Antifungal activity against Candida albicans ATCC 90028 after 18 to 48 hrs in presence of 40 ug/ml fluconazole by checkerboard assay. The format is functional.
Data set [2] deals with Candida albicans. Briefly: Antifungal activity against Candida albicans ATCC 90028 assessed as growth inhibition at 0.25 ug/ml after 48 hrs by broth microdilution method relative to control. The format is functional. The conditions noted are these: ATCC 90028, 48 h, read-out: GI. On the technique in general: In broth dilution the organism is exposed to a series of concentrations in liquid medium.

The nature of data set [3]: Antifungal activity against Fusarium oxysporum MF5 assessed as radial growth inhibition at 64 ug/ml after 5 to 7 days relative to control. The format is functional.
Data set [4] relates to Candida albicans. Briefly: Antifungal activity against Candida albicans ATCC 90028 after 18 to 48 hrs in presence of 20 ug/ml fluconazole by checkerboard assay. The format is functional.
Data set [5] relates to Candida albicans. Briefly: Antifungal activity against Candida albicans ATCC 90028 assessed as growth inhibition at 0.0625 ug/ml after 48 hrs by broth microdilution method relative to control. The format is functional. The note with it: ATCC 90028, 48 h, read-out: GI.
Data set [6] relates to Candida albicans. Briefly: Antifungal activity against Candida albicans ATCC 90028 assessed as fractional inhibitory concentration index after 18 to 48 hrs in presence of fluconazole by checkerboard assay. The format is functional.
The test system of data set [7] is Aspergillus niger. The data set can be described thus: Antifungal activity against Aspergillus niger ATCC 16404 assessed as radial growth inhibition at 64 ug/ml after 5 to 7 days relative to control. The conditions noted are these: read-out: GI. The format is functional.
Data set [8] has as its system Candida albicans. Briefly: Antifungal activity against Candida albicans ATCC 90028 after 18 to 48 hrs in presence of 5 ug/ml fluconazole by checkerboard assay. The format is functional.
Data set [9] concerns Candida albicans. Briefly: Antifungal activity against Candida albicans ATCC 90028 assessed as growth inhibition after 48 hrs in presence of osmotic protector 0.8 M sorbitol by broth microdilution method. The format is functional. The conditions noted are these: ATCC 90028, 48 h.
The test system of data set [10] is Candida albicans. Briefly: Antifungal activity against Candida albicans ATCC 90028 assessed as growth inhibition after 7 days in presence of osmotic protector 0.8 M sorbitol by broth microdilution method. The format is functional. The note with it: ATCC 90028, 168 h.
Data set [11] relates to Candida albicans. The data set can be described thus: Fungicidal activity against Candida albicans ATCC 90028 at MIC after 48 hrs in presence of osmotic protector 0.8 M sorbitol by broth microdilution method. The format is functional.
Data set [12] deals with Candida albicans. Briefly: Antifungal activity against Candida albicans ATCC 90028 assessed as growth inhibition at 2 ug/ml after 48 hrs by broth microdilution method relative to control. The format is functional. The note with it: ATCC 90028, 48 h, read-out: GI.
The subject of data set [13] is Candida albicans. The data set can be described thus: Antifungal activity against Candida albicans ATCC 90028 after 18 to 48 hrs in presence of 10 ug/ml fluconazole by checkerboard assay. The format is functional.
For data set [14], the system named is Candida albicans. Briefly: Antifungal activity against Candida albicans ATCC 90028 after 18 to 48 hrs in presence of 2.5 ug/ml fluconazole by checkerboard assay. The format is functional.
Data set [15] concerns Candida albicans. The data set can be described thus: Antifungal activity against Candida albicans ATCC 90028 assessed as growth inhibition at 4 ug/ml after 48 hrs by broth microdilution method relative to control. The format is functional. The note with it: ATCC 90028, 48 h, read-out: GI.
Data set [16] in a line: Toxicity in last instar larval stage of Galleria mellonella assessed as survival at 16 ug/ml after 96 hrs.
Data set [17] relates to Candida albicans. The data set can be described thus: Antifungal activity against Candida albicans ATCC 90028 assessed as growth inhibition at 1 ug/ml after 48 hrs by broth microdilution method relative to control. The format is functional. The conditions noted are these: ATCC 90028, 48 h, read-out: GI.
The subject of data set [18] is Candida albicans. The data set can be described thus: Antifungal activity against Candida albicans ATCC 90028 assessed as growth inhibition at 16 ug/ml after 48 hrs by broth microdilution method relative to control. The format is functional. The note with it: ATCC 90028, 48 h, read-out: GI.
For data set [19], the system named is Candida albicans. The data set can be described thus: Antifungal activity against Candida albicans ATCC 90028 assessed as growth inhibition after 18 to 48 hrs in presence of 1.25 ug/ml fluconazole by checkerboard assay. The format is functional.
The nature of data set [20]: Antifungal activity against Fusarium sambucinum MF1 assessed as radial growth inhibition at 64 ug/ml after 5 to 7 days relative to control. The format is functional.
In data set [21] the test system is Candida albicans. The data set can be described thus: Antifungal activity against Candida albicans ATCC 90028 assessed as fractional inhibitory concentration after 18 to 48 hrs in presence of fluconazole by checkerboard assay. The format is functional.
A short description of data set [22]: Antifungal activity against Colletotrichum coccodes MC1 assessed as radial growth inhibition at 64 ug/ml after 5 to 7 days relative to control. The format is functional.
The subject of data set [23] is Candida albicans. Briefly: Antifungal activity against Candida albicans ATCC 90028 assessed as growth inhibition at 8 ug/ml after 48 hrs by broth microdilution method relative to control. The format is functional. The conditions noted are these: ATCC 90028, 48 h, read-out: GI.
Data set [24] deals with Candida albicans. Briefly: Antifungal activity against Candida albicans ATCC 90028 assessed as growth inhibition at 0.0313 ug/ml after 48 hrs by broth microdilution method relative to control. The format is functional. The conditions noted are these: ATCC 90028, 48 h, read-out: GI.
Data set [25] has as its system Candida albicans. Briefly: Antifungal activity against Candida albicans ATCC 90028 assessed as growth inhibition after 48 hrs by broth microdilution method. The format is functional. The conditions noted are these: ATCC 90028, 48 h.
Data set [26] concerns Candida albicans. Briefly: Antifungal activity against Candida albicans ATCC 90028 after 18 to 48 hrs in presence of 80 ug/ml fluconazole by checkerboard assay. The format is functional.
Data set [27] relates to Candida albicans. Briefly: Antifungal activity against Candida albicans ATCC 90028 assessed as growth inhibition at 0.5 ug/ml after 48 hrs by broth microdilution method relative to control. The format is functional. The note with it: ATCC 90028, 48 h, read-out: GI.
Data set [28] deals with Candida albicans. Briefly: Antifungal activity against Candida albicans ATCC 90028 assessed as growth inhibition at 0.125 ug/ml after 48 hrs by broth microdilution method relative to control. The format is functional. The note with it: ATCC 90028, 48 h, read-out: GI.
Data set [29] concerns Candida albicans. Briefly: Antifungal activity against Candida albicans ATCC 90028 after 18 to 48 hrs in presence of 1.25 ug/ml fluconazole by checkerboard assay. The format is functional.
Data set [30] has as its system Candida albicans. The data set can be described thus: Fungicidal activity against Candida albicans ATCC 90028 at MIC after 7 days in presence of osmotic protector 0.8 M sorbitol by broth microdilution method. The format is functional.

Turning to `Clc1ccc(-c2nnn(CCCSc3nc4ccccc4o3)n2)cc1`, the Activity in data set [1] is listed as 100%; in [4] it was 98%; in data set [8], 99%; in [11] it was 100%; in [13], 99%; in [14], 100%. The Activity in data set [26], in data set [29] and in data set [30] was 100% in each case. Besides, the inhibition of growth at 0.25 µg/mL in [2] is 99.2%. Also, the figures for the growth inhibition (GI) in data set [3], in data set [20] and in [22] were 4%, 14.5% and 46.7%, respectively. Besides, the inhibition of growth at 0.0625 µg/mL in [5] was found to be 99.1%. For the same molecule, in [6], the “fractional inhibitory concentration index (FICI)” value was determined as 5.08. The inhibition of growth at 64 µg/mL in [7] turned out to be 11.8%. Moreover, the MIC is 1 µg/mL in data set [9], 1 µg/mL in data set [10], 1.25 µg/mL in data set [19] and above 16 µg/mL in data set [25]. For the same molecule, the inhibition of growth at 2 µg/mL in data set [12] was determined as 99.5%. Moreover, the inhibition of growth at 4 µg/mL in [15] was 98.7%. The survival at 96 h in [16] stood at 100%. Also, the inhibition of growth at 1 µg/mL in [17] is 99.3%. Besides, the inhibition of growth at 16 µg/mL in data set [18] turned out to be 99.2%. The Ratio in data set [21] amounted to 0.08. Further, the inhibition of growth at 8 µg/mL in [23] amounted to 99.4%. The inhibition of growth at 0.0313 µg/mL in data set [24] was 99%. The inhibition of growth at 0.5 µg/mL in [27] amounted to 99.4%. Further, the inhibition of growth at 0.125 µg/mL in [28] was 99.1%.
Turning to `c1ccc(-c2nnn(CCCSc3nc4ccccc4s3)n2)cc1`, the growth inhibition (GI) in data set [3] is 0%; in data set [20], 13%; in data set [22], 23.4%. Besides, in data set [7], the inhibition of growth at 64 µg/mL was found to be 4.4%.
On to `O=S(=O)(CCn1nnc(-c2ccccc2Cl)n1)c1ccccc1`, for which the inhibition of growth at 0.25 µg/mL in data set [2] amounted to 98.1%. Also, the results for the growth inhibition (GI) in data set [3], in data set [20] and in data set [22] were 31.2%, 35.6% and 43.4%, respectively. For the same molecule, the inhibition of growth at 0.0625 µg/mL in data set [5] stood at 98.4%. Besides, the inhibition of growth at 64 µg/mL in data set [7] came out at 17.1%. Also, the inhibition of growth at 2 µg/mL in data set [12] turned out to be 97.9%. In [15], the inhibition of growth at 4 µg/mL was determined as 97.8%. Moreover, the inhibition of growth at 1 µg/mL in data set [17] was determined as 98.2%. Besides, the inhibition of growth at 16 µg/mL in data set [18] was 98.5%. Further, the inhibition of growth at 8 µg/mL in data set [23] worked out at 98%. In addition, the inhibition of growth at 0.0313 µg/mL in data set [24] turned out to be 98.6%. The inhibition of growth at 0.5 µg/mL in [27] was 98.2%. In addition, in data set [28], the inhibition of growth at 0.125 µg/mL was determined as 97.8%.
Consider `O=S(=O)(CCn1nnc(-c2ccc(Cl)cc2)n1)c1ccccc1`, for which, in [2], the inhibition of growth at 0.25 µg/mL is 99.3%. Further, the growth inhibition (GI) in data set [3] came to 1.7%; in [20] it was 1.8%; in data set [22], 18.4%. Also, the inhibition of growth at 64 µg/mL in data set [7] came out at 11.2%. Besides, the inhibition of growth at 2 µg/mL in data set [12] turned out to be 99.4%. Besides, in data set [15], the inhibition of growth at 4 µg/mL came out at 99.4%. Further, the inhibition of growth at 1 µg/mL in data set [17] worked out at 99.4%. For the same molecule, the inhibition of growth at 8 µg/mL in data set [23] was found to be 99.5%. For the same molecule, the inhibition of growth at 0.0313 µg/mL in [24] was 99%. Moreover, in [27], the inhibition of growth at 0.5 µg/mL stood at 99.4%. Besides, the inhibition of growth at 0.125 µg/mL in data set [28] came out at 99.3%.
Take `Clc1ccc(-c2nnn(CCCSc3nc4ccccc4s3)n2)cc1`: the growth inhibition (GI) in data set [3] turned out to be 0%; in data set [20], 5%; in data set [22], 36.7%. Moreover, the inhibition of growth at 64 µg/mL in data set [7] stood at 0%.
On to `Clc1ccccc1-c1nnn(CCCSc2nc3ccccc3o2)n1`, for which the Activity in data set [1], in data set [4], in [8], in data set [13], in data set [14] and in [26] was 100% each time. The results for the Activity in data set [29] and in data set [30] were 100% and 97%, respectively. Further, the growth inhibition (GI) in [3] amounted to 0%; in data set [20], 14.5%; in data set [22], 33.4%. The inhibition of growth at 64 µg/mL in [7] is 6%. Also, the MIC is 1 µg/mL in [9], 1 µg/mL in data set [10], 1.25 µg/mL in data set [19] and above 16 µg/mL in data set [25]. The inhibition of growth at 2 µg/mL in [12] came to 99.1%. Moreover, in data set [15], the inhibition of growth at 4 µg/mL turned out to be 99.2%. Moreover, the survival at 96 h in data set [16] was 100%. In addition, the inhibition of growth at 1 µg/mL in data set [17] turned out to be 99.1%. Moreover, the inhibition of growth at 16 µg/mL in data set [18] worked out at 99.1%. Moreover, in data set [23], the inhibition of growth at 8 µg/mL came out at 99.2%. Further, in data set [27], the inhibition of growth at 0.5 µg/mL was found to be 98.9%.

As usually defined, the MIC is the smallest concentration in the dilution series that meets the test's criterion for growth inhibition.
